Literature values as cited in US11779563B2, “Oral cannabinoid pharmaceutical compositions and methods of treating sleep disorders” (Curio IP, LLC, priority 2021, dated 2023).

Conditions: following smoking of the equivalent of 10-15 mg over 5-7 minutes

For `CCCCCc1cc(O)c2c(c1)OC(C)(C)[C@@H]1CCC(C)=C[C@@H]21` [THC, (−)-(6aR,10aR)-6,6,9-trimethyl-3-pentyl-6a,7,8,10a-tetrahydro-6H-benzo[c]chromen-1-ol], the peak plasma levels is given as “around 100 μg/L”.
